# Results reported in patent publication US9700533B2, “Maternal chelation for embryo, fetal and infant benefit” (priority 2005, dated 2017).
# Where two headings read alike, the source gives them in different places.
# How the values were obtained:
# [1] = Chelation-provoked urine test, urinary uranium; assay type: in vivo, human
# Description: (§1) The terms “diagnostic provocation” and “chelation-provoked urine tests” and related terms refer to a procedure whereby the patient is administered one of more dosages of chelators, after which the patient's urine is collected for a defined period of time. The collected urine is analyzed for metal content, the metal having been removed from the patient's body by the chelators. The results of this procedure can indicate which metals are present in the patient's body and the approximate levels of the metals, which is subsequently used in designing a course of chelation therapy.
# (§2) The metals may be measured with or without prior chelation provocation. The standard values accepted by medical laboratories are measured without chelation provocation. Treatment with chelation medication mobilizes metal stores within in the body to be detected in the urine, thus values obtained post-provocation will be increased.
# [2] = Chelation-provoked urine test, urinary cadmium; assay type: in vivo, human
# Description: as §1, §2
# [3] = Chelation-provoked urine test, urinary nickel; assay type: in vivo, human
# Description: as §1, §2
# [4] = Chelation-provoked urine test, metals revealed (in words); settings: 6 hour urine
# Description: as §1, §2
# [5] = Maternal chelation treatment, pregnancy, child and patient outcome; assay type: in vivo, human
# [6] = Case 14
# Description: as §1, §2
# [7] = Case 14; remark: listed apart in the source
# Description: as §1, §2
# [8] = Chelation-provoked urine test, urinary lead
# Description: as §1, §2
# [9] = Case 14; remark: listed apart in the source
# Description: as §1, §2
# [10] = Chelation-provoked urine test, urinary tin; assay type: in vivo, human; settings: Case 14
# Description: as §1, §2
# [11] = Case 5
# Description: as §1, §2
# [12] = Case 5, EDTA provocation, before treatment
# [13] = Case 14, EDTA series, long-term follow up October 2005 after a little DMSA with essential daily defense
# [14] = Case 13, 3 grams EDTA and 3 grams vitamin C intravenous push, 6 hour collection
# [15] = Case 14, EDTA series, June 2004 after intravenous EDTA and DMPS chelation treatments
# [16] = Case 14, intravenous EDTA provocation January 2004, during the treatment period
# [17] = Case 5, EDTA provocation, previously (before treatment)
# [18] = EDTA series, June 2004 after intravenous EDTA and DMPS chelation treatments
# [19] = EDTA series, long-term follow up October 2005 after a little DMSA with essential daily defense
# [20] = intravenous EDTA provocation January 2004, during the treatment period
smiles,measurement,setting,value
"O=C(O)CN(CCN(CC(=O)O)CC(=O)O)CC(=O)O [EDTA, Ethylenediamine Tetra-acetic Acid]",urinary uranium,[1]; [12],0.33 (normal <0.013) mcg/g creatinine
same,"urinary uranium, times the reference range","[1]; Case 9, 3 grams calcium EDTA in 100 cc NS over 30 minutes, 6 hour urine",> 40 × the reference range
same,urinary uranium,[1]; [13],0.012 mcg/g creatinine
same,urinary cadmium,[2]; [12],3.18 (normal <0.76) mcg/g creatinine
same,urinary cadmium,[2]; [14],0.86 mcg/g creatinine
same,urinary cadmium,[2]; [15],1.75 mcg/g creatinine
same,urinary cadmium,[2]; [13],2.66 mcg/g creatinine
same,urinary cadmium,[2]; [16],1.59 mcg/g creatinine
same,urinary nickel,[3]; [12],36.9 (normal <9.5) mcg/g creatinine
same,"urinary nickel, times normal",[3]; [17],4 × normal
same,"urinary nickel, times normal","[3]; Case 5, repeat EDTA provocation after calcium EDTA + vitamin C IV and oral DMSA treatment",3 × normal
same,urinary nickel,[3]; [15],30 mcg/g creatinine
same,urinary nickel,[3]; [13],26 mcg/g creatinine
same,urinary nickel,[3]; [16],41 mcg/g creatinine
same,metals excreted on provocation,"[4]; Case 9, postpartum, 3 grams calcium EDTA in 100 cc NS over 30 minutes","significant excretion of lead, mercury, cadmium and uranium"
same,metals revealed on provocation,"[4]; Case 11, 3 grams calcium EDTA in 100 cc normal saline IV over 30 minutes","elevated levels of lead, mercury, aluminum, cadmium, gadolinium, gallium, tin, tungsten, and uranium"
same,urinary mercury,[14],3.09 mcg/g creatinine
same,urinary mercury,[15],0 mcg/g creatinine
same,urinary mercury,[13],9.4 mcg/g creatinine
same,urinary mercury,[16],0 mcg/g creatinine
same,child outcome after delivery,"[5]; Case 8, oral EDTA 3000 mg per day with vitamin C, selenium and garlic",healthy and neurologically normal
same,delivery outcome,"[5]; Case 8, parent with lead and mercury, oral EDTA 3000 mg per day with vitamin C 5000 mg per day, selenium 200 micrograms three times per day, garlic 6000 mg per day",normal delivery with no evidence of fetal distress
same,neurological development of the child,"[5]; Case 13, child, parents had ten intravenous EDTA chelations",admirable neurological development
same,urinary thorium,[6]; [18],0.06 mcg/g creatinine
same,urinary thorium,[6]; [19],0 mcg/g creatinine
same,urinary thorium,[6]; [20],0.22 mcg/g creatinine
same,urinary antimony,[7]; [18],0.15 mcg/g creatinine
same,urinary antimony,[7]; [19],0.09 mcg/g creatinine
same,urinary antimony,[7]; [20],0.18 mcg/g creatinine
same,urinary lead,[8]; [12],25.14 (normal <1.41) mcg/g creatinine
same,"urinary lead, times normal",[8]; [17],18 × normal
same,"urinary lead, times normal","[8]; Case 5, repeat EDTA provocation after 3 g calcium EDTA + 3 g vitamin C IV two times per week and DMSA 500 mg per day orally",8 × normal
same,urinary lead,[8]; [14],6.15 mcg/g creatinine
same,urinary lead,[8]; [15],5.5 mcg/g creatinine
same,urinary lead,[8]; [13],7.97 mcg/g creatinine
same,urinary lead,[8]; [16],4.6 mcg/g creatinine
same,urinary arsenic,[9]; [18],32 mcg/g creatinine
same,urinary arsenic,[9]; [19],46 mcg/g creatinine
same,urinary arsenic,[9]; [20],90 mcg/g creatinine
same,urinary tin,[10]; [18],0.3 mcg/g creatinine
same,urinary tin,[10]; [19],0.4 mcg/g creatinine
same,urinary tin,[10]; [20],0.6 mcg/g creatinine
same,urinary aluminum,"[11]; EDTA provocation, before treatment",176.8 (normal <98.7) mcg/g creatinine
same,"urinary aluminum, times normal","[11]; EDTA provocation, previously (before treatment)",2 × normal
same,"urinary aluminum, times normal",[11]; repeat EDTA provocation after calcium EDTA + vitamin C IV and oral DMSA treatment,0.2 × normal
